In patent US20080279932A1, “Compounds” (priority 2005, published 2008):
Marks after values point to notes of the source that are not given here.

What was measured:
[1] = Dissociation constant (pKa's) of LAF237 free base and salt-forming acids; format: physicochemical; conditions: LAF237 free base
[2] = Forced decomposition (HPLC assay, 3 days); format: physicochemical; conditions: for HPLC Assay Results (External Standard): in % (unit assumed)
Procedure: Procedure: Weigh 25 mg drug substance to a test tube and add 5 ml of appropriate solution.
(§1) One sample preparation per condition and one injection per sample.
Dilute sample to 1 mg/mL with water for HPLC analysis.
All salt forms were tested in bulk and water.
If the newer gradient method is selected then the order of elution of the acid degradation product and the amide degradation product are reversed, with the acid degradation product eluting first about 1.8 minutes and the amide degradation product eluting second about 2.5 minutes. Only the extended stability (3 month) samples were analyzed with the gradient HPLC method.

[3] = Racemization study; format: physicochemical
Excerpt: The free base in water chemically degraded and detection of racemization was not possible.

[4] = Stability of bulk material with excipients for 2 weeks at 50 C and 50 C/75% r.h. (HPLC assay); format: physicochemical; conditions: for HPLC Assay Results (External Standard): in % (unit assumed); for stability compared with the free base of vildagliptin: bulk and excipient mixtures, 2 weeks
Procedure: Stability of Bulk Material with Excipients for 2 week at 50 C and 50 C/75% r.h.
Procedure for Dry Mixtures: 25 mg of free base drug substance was weighed into sample tube and approximately 2.5 grams of mixture A, or 25 mg of Lactose was added to the tube. Weight adjustments were made for each salt.
as §1
Controls: A control of the drug substance with the excipients will be prepared and analyzed as a time zero data point and to test the efficiency of extracting the drug substance from the excipients.
Mixture A: (oral) mannitol/Avicel PH 102/Cutina HR 57:38:5 (m/m/m)

[5] = cited from earlier work; for Dissociation Constant (pKa's), first value: first pKa of the salt-forming acid (counter-ion); for Dissociation Constant (pKa's), second value: second pKa of the salt-forming acid (counter-ion)
[6] = 1% in mixture A Dry Granulated, 2 weeks at 50/75% r.h.
[7] = 1% in mixture A Dry Granulated, 2 weeks at 50° C.
[8] = 1% in mixture A Dry Granulated, t0
[9] = 50% in Lactose Dry Granulated, 2 weeks at 50/75% r.h.
[10] = 50% in Lactose Dry Granulated, 2 weeks at 50° C.
[11] = 50% in Lactose Dry Granulated, t0

| Molecule | HPLC Assay Results (External Standard) ([2]; Bulk, 80° C. (3-day)) | HPLC Assay Results (External Standard) ([2]; Bulk, ambient (3-day)) | HPLC Assay Results (External Standard) ([2]; H2O, 80° C. (3-day)) | HPLC Assay Results (External Standard) ([2]; H2O, ambient (3-day)) | racemization ([3]; drug in the solid state) | HPLC Assay Results (External Standard) [4, 6] | HPLC Assay Results (External Standard) [4, 7] | HPLC Assay Results (External Standard) [4, 8] | HPLC Assay Results (External Standard) [4, 9] | HPLC Assay Results (External Standard) [4, 10] | HPLC Assay Results (External Standard) [4, 11] | HPLC Assay Results (External Standard) ([4]; Bulk, 2 weeks at 50/75% r.h.) | HPLC Assay Results (External Standard) ([4]; Bulk, 2 weeks at 50° C.) | HPLC Assay Results (External Standard) ([4]; Bulk, t0) | stability in water ([2]; water at 80° C. after 3 days) | stability compared with the free base of vildagliptin [4] | Dissociation Constant (pKa's), first value [5] | Dissociation Constant (pKa's), second value [5] | other results |
| --- | --- | --- | --- | --- | --- | --- | --- | --- | --- | --- | --- | --- | --- | --- | --- | --- | --- | --- | --- |
| N#C[C@@H]1CCCN1C(=O)CNC12CC3CC(CC(O)(C3)C1)C2 [Free Base, (S)-1-[(3-hydroxy-1-adamantyl)amino]acetyl-2-cyano-pyrrolidine, reference compound] | 100.3 | 99.9 | 7.5 | 98.4 | no sign of racemization | 83.8* | 94.2* | 98.1* | 96.5 | 98.9 | 100.7 | 98.7 | 98.6 | 100.0 | – | – | – | – | pKa [1]: 7.86; stability in water ([2]; free base in water, after 3 days): complete degradation; LAF237 remaining ([2]; peroxide sample, after three days): 3%; stability under acidic conditions ([2]; room temperature): good stability; % loss in assay value ([4]; in the presence of mixture A): large losses |
| Hydrochloride Salt of Vildagliptin [Example 1] | 98.8 | 98.8 | 95.3 | 99.9 | no sign of racemization | 95.5 | 96.6 | 97.3 | 98.7 | 99.7 | 100.8 | 99.6 | 100.5 | 100.7 | remain stable | better stability | – | – | racemization ([3]; in solution in water, 80° C.): no sign of racemization; racemization ([3]; in solution in water, ambient): no sign of racemization |
| Hydrogen Fumarate Salt of Vildagliptin [Example 4] | 98.8 | 102.2 | 98.9 | 101.9 | – | 96.0 | 94.6 | 96.1 | 98.2 | 98.9 | 99.5 | 98.9 | 99.0 | 104.0 | remain stable | better stability | 3.03 | 4.47 | – |
| tartarate | – | – | – | – | – | – | – | – | – | – | – | – | – | – | – | – | 2.98 | 4.34 | – |
